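Exposure lasted 48 hours, with cells grown in 96-well plates and compounds tested at five concentrations. GI50 = concentration required for 50% inhibition of growth. TGI: concentration producing complete growth inhibition.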
Columns and labels:
Experiment in all cases: NCI anticancer screen, dose series, 48 h
786-0 renal = tested on: 786-0 renal
HCC-2998 colon = tested on: HCC-2998 colon
SK-OV-3 ovarian = tested on: SK-OV-3 ovarian
MCF7 breast = tested on: MCF7 breast
MDA-MB-231 breast = tested on: MDA-MB-231 breast
NCI-H23 lung = tested on: NCI-H23 lung
UO-31 renal = tested on: UO-31 renal
SW-620 colon = tested on: SW-620 colon
SK-MEL-28 melanoma = tested on: SK-MEL-28 melanoma
A549 NSCLC = tested on: A549 NSCLC
KM12 colon = tested on: KM12 colon
UACC-257 melanoma = tested on: UACC-257 melanoma
SNB-19 CNS = tested on: SNB-19 CNS
U251 CNS = tested on: U251 CNS
HCT-15 colon = tested on: HCT-15 colon
SK-MEL-2 melanoma = tested on: SK-MEL-2 melanoma
M14 melanoma = tested on: M14 melanoma
CAKI-1 renal = tested on: CAKI-1 renal
A498 renal = tested on: A498 renal
PC-3 prostate = tested on: PC-3 prostate
DU-145 prostate = tested on: DU-145 prostate
MDA-MB-435 = tested on: MDA-MB-435
NCI/ADR-RES ovarian = tested on: NCI/ADR-RES ovarian
MOLT-4 leukemia = tested on: MOLT-4 leukemia
TK-10 renal = tested on: TK-10 renal
ACHN renal = tested on: ACHN renal
RXF 393 renal = tested on: RXF 393 renal
HL-60(TB) leukemia = tested on: HL-60(TB) leukemia
NCI-H522 lung = tested on: NCI-H522 lung
SNB-75 CNS = tested on: SNB-75 CNS
RPMI-8226 leukemia = tested on: RPMI-8226 leukemia
HOP-92 NSCLC = tested on: HOP-92 NSCLC
UACC-62 melanoma = tested on: UACC-62 melanoma
MALME-3M melanoma = tested on: MALME-3M melanoma
SN12C renal = tested on: SN12C renal
CCRF-CEM leukemia = tested on: CCRF-CEM leukemia
HOP-62 NSCLC = tested on: HOP-62 NSCLC
MDA-MB-468 breast = tested on: MDA-MB-468 breast
OVCAR-3 ovarian = tested on: OVCAR-3 ovarian
SF-539 CNS = tested on: SF-539 CNS
EKVX NSCLC = tested on: EKVX NSCLC
COLO 205 colon = tested on: COLO 205 colon
SF-268 CNS = tested on: SF-268 CNS
NCI-H460 lung = tested on: NCI-H460 lung
LOX IMVI melanoma = tested on: LOX IMVI melanoma
BT-549 breast = tested on: BT-549 breast
T-47D breast = tested on: T-47D breast
SK-MEL-5 melanoma = tested on: SK-MEL-5 melanoma
HCT-116 colon = tested on: HCT-116 colon
NCI-H226 lung = tested on: NCI-H226 lung
OVCAR-5 ovarian = tested on: OVCAR-5 ovarian
IGROV1 ovarian = tested on: IGROV1 ovarian
SF-295 CNS = tested on: SF-295 CNS
HS 578T breast = tested on: HS 578T breast

Cc1ccc(C2CC(c3ccc(S(=O)(=O)NCCNc4nc(Nc5ccc(F)cc5)nc(N(C)C)n4)cc3)=Nc3c(N)nc(N)nc3N2)cc1 (stereo not drawn)
GI50 (786-0 renal): 7.06 µM | TGI (786-0 renal): > 100 µM | GI50 (HCC-2998 colon): 2.93 µM | TGI (HCC-2998 colon): 41.1 µM | GI50 (SK-OV-3 ovarian): > 100 µM | TGI (SK-OV-3 ovarian): > 100 µM | GI50 (MCF7 breast): 3.08 µM | TGI (MCF7 breast): > 100 µM | GI50 (MDA-MB-231 breast): 3.86 µM | TGI (MDA-MB-231 breast): > 100 µM | GI50 (NCI-H23 lung): 78.8 µM | TGI (NCI-H23 lung): > 100 µM | GI50 (UO-31 renal): > 100 µM | TGI (UO-31 renal): > 100 µM | GI50 (SW-620 colon): 8.04 µM | TGI (SW-620 colon): > 100 µM | GI50 (SK-MEL-28 melanoma): 26.9 µM | TGI (SK-MEL-28 melanoma): > 100 µM | GI50 (A549 NSCLC): > 100 µM | TGI (A549 NSCLC): > 100 µM | GI50 (KM12 colon): 4.56 µM | TGI (KM12 colon): > 100 µM | GI50 (UACC-257 melanoma): 26 µM | TGI (UACC-257 melanoma): > 100 µM | GI50 (SNB-19 CNS): 13.1 µM | TGI (SNB-19 CNS): > 100 µM | GI50 (U251 CNS): 7.08 µM | TGI (U251 CNS): > 100 µM | GI50 (HCT-15 colon): 4.95 µM | TGI (HCT-15 colon): > 100 µM | GI50 (SK-MEL-2 melanoma): 11.2 µM | TGI (SK-MEL-2 melanoma): 77.7 µM | GI50 (M14 melanoma): 4.56 µM | TGI (M14 melanoma): > 100 µM | GI50 (CAKI-1 renal): 8.06 µM | TGI (CAKI-1 renal): > 100 µM | GI50 (A498 renal): > 100 µM | TGI (A498 renal): > 100 µM | GI50 (PC-3 prostate): 3.33 µM | TGI (PC-3 prostate): > 100 µM | GI50 (DU-145 prostate): > 100 µM | TGI (DU-145 prostate): > 100 µM | GI50 (MDA-MB-435): 8.79 µM | TGI (MDA-MB-435): > 100 µM | GI50 (NCI/ADR-RES ovarian): > 100 µM | TGI (NCI/ADR-RES ovarian): > 100 µM | GI50 (MOLT-4 leukemia): 2.2 µM | TGI (MOLT-4 leukemia): 7.53 µM | GI50 (TK-10 renal): > 100 µM | TGI (TK-10 renal): > 100 µM | GI50 (ACHN renal): > 100 µM | TGI (ACHN renal): > 100 µM | GI50 (RXF 393 renal): 2.27 µM | TGI (RXF 393 renal): 9.12 µM | GI50 (HL-60(TB) leukemia): 2.94 µM | TGI (HL-60(TB) leukemia): 20.2 µM | GI50 (NCI-H522 lung): 21.3 µM | TGI (NCI-H522 lung): > 100 µM | GI50 (SNB-75 CNS): > 100 µM | TGI (SNB-75 CNS): > 100 µM | GI50 (RPMI-8226 leukemia): 2.94 µM | TGI (RPMI-8226 leukemia): > 100 µM | GI50 (HOP-92 NSCLC): 2.54 µM | TGI (HOP-92 NSCLC): 21 µM | GI50 (UACC-62 melanoma): 20.9 µM | TGI (UACC-62 melanoma): > 100 µM | GI50 (MALME-3M melanoma): 4.65 µM | TGI (MALME-3M melanoma): 33.2 µM | GI50 (SN12C renal): > 100 µM | TGI (SN12C renal): > 100 µM | GI50 (CCRF-CEM leukemia): 2.81 µM | TGI (CCRF-CEM leukemia): > 100 µM | GI50 (HOP-62 NSCLC): > 100 µM | TGI (HOP-62 NSCLC): > 100 µM | GI50 (MDA-MB-468 breast): 2.72 µM | TGI (MDA-MB-468 breast): 8.52 µM | GI50 (OVCAR-3 ovarian): 9.93 µM | TGI (OVCAR-3 ovarian): > 100 µM | GI50 (SF-539 CNS): 3.29 µM | TGI (SF-539 CNS): 78.9 µM | GI50 (EKVX NSCLC): 5.84 µM | TGI (EKVX NSCLC): > 100 µM | GI50 (COLO 205 colon): 11.5 µM | TGI (COLO 205 colon): > 100 µM | GI50 (SF-268 CNS): 7.53 µM | TGI (SF-268 CNS): > 100 µM | GI50 (NCI-H460 lung): 4.76 µM | TGI (NCI-H460 lung): > 100 µM | GI50 (LOX IMVI melanoma): 2.09 µM | TGI (LOX IMVI melanoma): 5.11 µM | GI50 (BT-549 breast): 5.46 µM | TGI (BT-549 breast): 59.4 µM | GI50 (T-47D breast): 8.75 µM | TGI (T-47D breast): > 100 µM | GI50 (SK-MEL-5 melanoma): 4.98 µM | TGI (SK-MEL-5 melanoma): 20.6 µM | GI50 (HCT-116 colon): 3.81 µM | TGI (HCT-116 colon): > 100 µM | GI50 (NCI-H226 lung): > 100 µM | TGI (NCI-H226 lung): > 100 µM | GI50 (OVCAR-5 ovarian): > 100 µM | TGI (OVCAR-5 ovarian): > 100 µM | GI50 (IGROV1 ovarian): 64.4 µM | TGI (IGROV1 ovarian): > 100 µM | GI50 (SF-295 CNS): 6.6 µM | TGI (SF-295 CNS): > 100 µM | GI50 (HS 578T breast): 19.4 µM | TGI (HS 578T breast): > 100 µM
